Measurements as given in patent US20210330611A1, “THERAPY FOR NEUROLOGICAL DISEASES/DISORDERS” (priority 2020, published 2021).
Read-outs that look alike come from different tables or passages of the source.

Tests used:
[1] = tested on: fibrin-induced microglia activation; test: Image-based assay of fibrin-induced microglia activation (HTS and dose response); format: cell-based, rat; conditions: for inhibition at 10 µM: Rattus norvegicus, Microglia, read-out: Fibrin % inhibition
primary rat microglia [2] = test: Cell toxicity (dead cells, size <150 μm2) in LPS assay; conditions: for IC50: read-out: Cell Toxicity IC50 (uM) [LPS assay]
[3] = tested on: fibrin- and LPS-induced microglia activation; test: cells; format: cell-based, rat
primary rat microglia [4] = test: Cell toxicity (dead cells, size <150 μm2) in coated fibrin (cFib) assay; conditions: for IC50: read-out: Cell Toxicity IC50 (uM) [cFib assay];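 as to Fibrin % cell toxicity: share of dead cells sized under 150 µm2 at 10 µM in fibrin-stimulated microglia HTS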
[5] = tested on: LPS-induced microglia activation; test: Image-based assay of LPS-induced microglia activation (HTS and dose response); format: cell-based, rat; conditions: for inhibition at 10 µM: Rattus norvegicus, Microglia, read-out: LPS % inhibition
[6] = primary microglia HTS, fibrin stimulation, increased cell size (>800 μm^2) as marker of activation
[7] = primary microglia HTS, LPS stimulation, decreased size (<150 μm^2) as marker of toxicity
[8] = quadrant by fibrin and LPS inhibition in HTS of 1907 compounds
[9] = primary microglia HTS, fibrin stimulation, decreased size (<150 μm^2) as marker of toxicity
[10] = primary microglia HTS, LPS stimulation, increased cell size (>800 μm^2) as marker of activation
[11] = 48 h, primary microglia HTS, LPS stimulation, increased cell size (>800 μm^2) as marker of activation
[12] = primary HTS, 10 μM, fibrin-stimulated primary microglia
[13] = primary HTS, 10 μM, LPS assay, dead cells size <150 μm2
[14] = primary HTS, 10 μM, fibrin assay, dead cells size <150 μm2
[15] = primary HTS, 10 μM, LPS-stimulated primary microglia

CC(=O)[C@@]12O[C@](C)(c3ccccc3)O[C@@H]1C[C@H]1[C@@H]3CCC4=CC(=O)CC[C@]4(C)[C@H]3CC[C@@]12C [Algestone acetophenide, reference compound]
Fibrin Selectivity [1]: 9 | Fibrin Selectivity (LOG10) [1]: 0.95 | IC50 ([1]; Table 1, dose response 0.001-20 μM, triplicates, primary rat microglia, 48 h, read-out: Fibrin IC50): 1 µM | IC50 ([1]; Table 3, read-out: Fibrin IC50 (uM) (Suppl. Table 7)): 1 µM | IC50 ([1]; dose response, fibrin-induced microglia activation, read-out: Fibrin IC50): 1 µM | IC50 ([1]; fibrin-induced microglia activation, dose response, read-out: Fibrin IC50 (uM) (Suppl. Table 7)): 1 µM | Fibrin % inhibition [1, 6]: 62% | LPS % cell toxicity (primary rat microglia [2]; [7]): 2% | IC50 (primary rat microglia [2]; LPS assay): > 20 µM | IC50 (primary rat microglia [2]; Table 3): > 20 µM | Hit ([3]; HTS hit classification): HIT (Hits were defined as molecules that exhibited greater than 50% inhibition of either fibrin or LPS activation) | Quadrant (FIG. 5b) ([3]; HTS of 1907 compounds, quadrant by fibrin and LPS inhibition): Q2 | Quadrant (FIG. 5b) ([3]; Table 1, screen at 10 μM): Q2 | Cherry-picked Hit (Suppl. Table 7) ([3]; Table 3): HIT (Hits were defined as molecules that exhibited greater than 50% inhibition of either fibrin or LPS activation) | Quadrant (FIG. 5b) ([3]; Table 3, screen at 10 μM): Q2 | Cherry-picked Hit (Suppl. Table 7) ([3]; hit classification in microglia HTS): HIT (Hits were defined as molecules that exhibited greater than 50% inhibition of either fibrin or LPS activation) | Quadrant (FIG. 5b) [3, 8]: Q2 | Fibrin % cell toxicity (primary rat microglia [4]; [9]): 1% | IC50 (primary rat microglia [4]; Table 3): > 20 µM | IC50 (primary rat microglia [4]; cFib assay): > 20 µM | IC50 ([5]; LPS-induced microglia activation, dose response, read-out: LPS IC50 (uM) (Suppl. Table 7)): 9 µM | IC50 ([5]; Table 1, dose response 0.001-20 μM, triplicates, primary rat microglia, 48 h, read-out: LPS IC50): 9 µM | IC50 ([5]; Table 3, read-out: LPS IC50 (uM) (Suppl. Table 7)): 9 µM | IC50 ([5]; dose response, LPS-induced microglia activation, read-out: LPS IC50): 9 µM | LPS % inhibition [5, 10]: 61%

CCCCC[C@H](O)/C=C/[C@H]1[C@H](O)CC(=O)[C@@H]1CCCCCCC(=O)O [Alprostadil]
inhibition at 10 µM [1, 6]: 100% | LPS % cell toxicity (primary rat microglia [2]; [7]): 3% | Quadrant (FIG. 5b) [3, 8]: Q2 | Fibrin % cell toxicity (primary rat microglia [4]; [9]): 9% | inhibition at 10 µM [5, 11]: 87%

CC(=O)OCC(=O)[C@@]12OC3(CCCC3)O[C@@H]1C[C@H]1[C@@H]3CCC4=CC(=O)C=C[C@]4(C)[C@@]3(F)[C@@H](O)C[C@@]12C [Amcinonide]
inhibition at 10 µM [1, 6]: 112% | LPS % cell toxicity (primary rat microglia [2]; [7]): 6% | Quadrant (FIG. 5b) [3, 8]: Q2 | Fibrin % cell toxicity (primary rat microglia [4]; [9]): 7% | inhibition at 10 µM [5, 11]: 119%

Nc1c2ccccc2nc2ccccc12 [Aminacrine]
inhibition at 10 µM [1, 6]: 117% | LPS % cell toxicity (primary rat microglia [2]; [7]): 67% | Quadrant (FIG. 5b) [3, 8]: Q2 | Fibrin % cell toxicity (primary rat microglia [4]; [9]): 72% | inhibition at 10 µM [5, 11]: 118%

COc1ccc(CCN2CCC(Nc3nc4ccccc4n3Cc3ccc(F)cc3)CC2)cc1 [Astermizole]
Fibrin % inhibition [1, 6]: 10% | LPS % cell toxicity (primary rat microglia [2]; [7]): 2% | Quadrant (FIG. 5b) [3, 8]: Q1 | Fibrin % cell toxicity (primary rat microglia [4]; [9]): 1% | LPS % inhibition [5, 10]: 69%

CC(=O)OC[C@H]1O[C@@H]([S-])[C@H](OC(C)=O)[C@@H](OC(C)=O)[C@@H]1OC(C)=O.CCP(CC)CC.[Au+] [Auranofin]
Fibrin % inhibition [1, 6]: 106% | LPS % cell toxicity (primary rat microglia [2]; [7]): 98% | Quadrant (FIG. 5b) [3, 8]: Q2 | Fibrin % cell toxicity (primary rat microglia [4]; [9]): 94% | LPS % inhibition [5, 10]: 106%

CN(C)CCCOc1nn(Cc2ccccc2)c2ccccc12 [Benzydamine]
inhibition at 10 µM [1, 12]: -16% | LPS % cell toxicity (primary rat microglia [2]; [13]): 1% | Quadrant (FIG. 5b) ([3]; primary HTS, 10 μM): Q4 | Fibrin % cell toxicity (primary rat microglia [4]; [14]): 1% | inhibition at 10 µM [5, 15]: 30%

OCc1ccccc1 [Benzyl Alcohol]
inhibition at 10 µM [1, 12]: -54% | LPS % cell toxicity (primary rat microglia [2]; [13]): 0% | Quadrant (FIG. 5b) ([3]; primary HTS, 10 μM): Q4 | Fibrin % cell toxicity (primary rat microglia [4]; [14]): 0% | inhibition at 10 µM [5, 15]: 11%

CC1(C)S[C@@H]2[C@H](NC(=O)Cc3ccccc3)C(=O)N2[C@H]1C(=O)O [Benzylpenicillin]
inhibition at 10 µM [1, 12]: 29% | LPS % cell toxicity (primary rat microglia [2]; [13]): 0% | Quadrant (FIG. 5b) ([3]; primary HTS, 10 μM): Q4 | Fibrin % cell toxicity (primary rat microglia [4]; [14]): 1% | inhibition at 10 µM [5, 15]: 42%

C[N+](C)(CCOc1ccccc1)Cc1ccccc1.O=C([O-])c1cc2ccccc2cc1O [Bephenium Hydroxynapthoate]
Fibrin % inhibition [1, 12]: 25% | LPS % cell toxicity (primary rat microglia [2]; [13]): 0% | Quadrant (FIG. 5b) ([3]; primary HTS, 10 μM): Q4 | Fibrin % cell toxicity (primary rat microglia [4]; [14]): 1% | LPS % inhibition [5, 15]: 19%

COc1c2ccoc2cc2oc(=O)ccc12 [Bergapten]
inhibition at 10 µM [1, 12]: -5% | LPS % cell toxicity (primary rat microglia [2]; [13]): 0% | Quadrant (FIG. 5b) ([3]; primary HTS, 10 μM): Q4 | Fibrin % cell toxicity (primary rat microglia [4]; [14]): 1% | inhibition at 10 µM [5, 15]: 22%
